Test results: patent publication US20210052705A1, “METHOD OF DRUG […] FOR PTH, PTHrP AND RELATED PEPTIDES” (Radius Health, Inc., priority 2011, published 2021)
Read-outs that look alike come from different tables or passages of the source.

Columns and labels:
[1] = male, Sprague Dawley, rat, in vivo
Protocol: Certain drug coated microarrays were tested in vivo in a preclinical model using Sprague Dawley rats. […] Male Sprague Dawley rats with jugular vein catheters were purchased from Charles River Laboratories. Once received, they were acclimated for at least 24 hours prior to dosing.
Typically, one hour prior to dosing microneedle arrays were removed from refrigeration (approximately 4° C.) and allowed to equilibrate to room temperature.
The standard procedure for skin preparation and microneedle array application is as follows.
One day prior to dosing, an area just above the hind legs on the dorsal surface of the rat was shaved using electric clippers. Nair® hair removal lotion (Church & Dwight Co.) was then applied to the area for 5 to 8 minutes to remove remaining fur stubble. The Nair® lotion was then thoroughly removed using a damp cloth. The next day a microneedle array was applied using a spring-loaded applicator. The microneedle array was left in contact with skin for five minutes, before being removed. During array application and contact time the rats were manually restrained.
Blood was collected at three time points from each animal out of a possible total of five time destinations (5 minutes, 15 minutes, 30 minutes, 45 minutes, 90 minutes) from each rat on a staggered schedule so that all time points would be represented with extra sampling at 15 minutes without overdrawing from any animal. Approximately 1 mL of blood was collected via the catheter from the jugular vein using a syringe and needle from rats for their first two blood draws. For the terminal blood collection, animals were euthanized via CO2 chamber and approximately 1 mL of blood was collected via cardiac puncture. The blood was immediately transferred to a serum separator tube that contained 25 μL of a 2.5 mg/ml aprotinin (Sigma) solution.
Blood was collected from each rat 5, 10, 15, 30 and 45 minutes post dose. Approximately 600 μL of blood was collected via the catheter from the jugular vein using a syringe and needle from rats for their first four blood draws. For the terminal blood collection, animals were euthanized via CO2 chamber and approximately 600 μL of blood was collected via cardiac puncture. The blood was immediately transferred to a serum separator tube that contained 12 μL of a 2.5 mg/ml aprotinin (Sigma) solution.
Blood was collected three or four times from each rat at the time points depicted in the tables below. Approximately 1 mL of blood was collected via the catheter from the jugular vein using a syringe and needle from rats for any non-terminal time points. For the terminal blood collection, animals were euthanized via CO2 chamber and approximately 1 mL of blood was collected via cardiac puncture. The blood was immediately transferred to a serum separator tube that contained 20 μL of a 2.5 mg/ml aprotinin (Sigma) solution.
Blood was collected from each rat 5, 15, 30, 45, 90 and 120 minutes post dose. Approximately 500 μL of blood was collected via the catheter from the jugular vein using a syringe and needle from rats for their first five blood draws. For the terminal blood collection, animals were euthanized via CO2 chamber and approximately 500 μL of blood was collected via cardiac puncture.

[2] = female, human, in vivo
[3] = in vivo; conditions: Sprague-Dawley, rat, 13.6 ug
Protocol: Several additional single dose pharmacokinetic studies were performed in Sprague-Dawley rats.
Dose Administration Typically, one day prior to dosing, an area just above the hind legs on the dorsal side of the rat was shaved using electric clippers. Nair® hair removal lotion was then applied to the area for 5 to 8 minutes to remove remaining hair stubble. The Nair lotion was removed completely using a cloth dampened with water. The next day the microneedle array was applied using the supplied spring loaded applicator. The microneedle array was left in contact with the skin for either five minutes before removal or removed almost immediately (typically 2-3 seconds after skin contact). During microneedle application and contact, the rats were manually restrained.
Serum Sample Collection Blood was collected from each rat at 5, 15, 30, 45 and 90 minutes after application of microneedle arrays, for LCP-microneedle arrays and at 1, 5, 15 and 30 minutes after application for PC-microneedle arrays. Approximately 600 μL of blood was collected via the catheter from the jugular vein using a syringe and needle from rats for their first four blood draws. For the last blood collection, animals were euthanized via CO2 chamber and approximately 600 μL of blood was collected via cardiac puncture. The blood was immediately transferred to a serum separator tube that contained 12 μL of a 2.5 mg/ml aprotinin (Sigma) solution.

[4] = clinical; conditions: female, human, in vivo, LS Mean; for AUC(0-inf): AUC0-inf; for AUC(0-t): AUC0-t

## CC[C@H](C)[C@H](NC(=O)[C@H](CO)NC(=O)[C@H](CCCCN)NC(=O)CNC(=O)[C@H](CCCCN)NC(=O)[C@H](CC(=O)O)NC(=O)[C@H](Cc1cnc[nH]1)NC(=O)[C@H](CC(C)C)NC(=O)[C@H](CC(C)C)NC(=O)[C@H](CCC(N)=O)NC(=O)[C@H](Cc1cnc[nH]1)NC(=O)[C@H](CCC(=O)O)NC(=O)[C@H](CO)NC(=O)[C@@H](NC(=O)[C@H](C)N)C(C)C)C(=O)N[C@@H](CCC(N)=O)C(=O)N[C@@H](CC(=O)O)C(=O)N[C@@H](CC(C)C)C(=O)N[C@@H](CCCNC(=N)N)C(=O)N[C@@H](CCCNC(=N)N)C(=O)N[C@@H](CCCNC(=N)N)C(=O)N[C@@H](CCC(=O)O)C(=O)N[C@@H](CC(C)C)C(=O)N[C@@H](CC(C)C)C(=O)N[C@@H](CCC(=O)O)C(=O)N[C@@H](CCCCN)C(=O)N[C@@H](CC(C)C)C(=O)N[C@@H](CC(C)C)C(=O)NC(C)(C)C(=O)N[C@@H](CCCCN)C(=O)N[C@@H](CC(C)C)C(=O)N[C@@H](Cc1cnc[nH]1)C(=O)N[C@H](C(=O)N[C@@H](C)C(N)=O)[C@@H](C)O [Peptide]
[1]; 20 ug/kg
  AUC(0-t): 166 ng·min/mL
  Cmax: 7.15 ng/mL
  Cmax (20 μg/kg Dose): 7.15 ng/mL
  T1/2: 14 min
  Tmax: 15 min
[1]; 26.2 ug, 5 min
  Concentrations of Peptide in Serum: 45.29 ng/mL
[1]; 26.2 ug, 0.25 h
  Concentrations of Peptide in Serum: 59.72 ng/mL
[1]; 26.2 ug, 0.5 h
  Concentrations of Peptide in Serum: 20.15 ng/mL
[1]; 26.2 ug, 0.75 h
  Concentrations of Peptide in Serum: 11.63 ng/mL
[1]; 27 ug
  T1/2: 26 min
  Tmax: 15 min
[1]; 27 ug, 5 min
  Concentrations of Peptide in Serum: 21.34 ng/mL
[1]; 27 ug, 0.25 h
  Concentrations of Peptide in Serum: 31.08 ng/mL
[1]; 27 ug, 0.5 h
  Concentrations of Peptide in Serum: 12.43 ng/mL
[1]; 27 ug, 0.75 h
  Concentrations of Peptide in Serum: 6.99 ng/mL
[1]; 32 ug, 5 min
  Concentrations of Peptide in Serum: 37.76 ng/mL
[1]; 32 ug, 10 min
  Concentrations of Peptide in Serum: 29.94 ng/mL
[1]; 32 ug, 0.25 h
  Concentrations of Peptide in Serum: 37.48 ng/mL
[1]; 32 ug, 0.5 h
  Concentrations of Peptide in Serum: 15.99 ng/mL
[1]; 32 ug, 0.75 h
  Concentrations of Peptide in Serum: 8.39 ng/mL
[1]; 141.9 ug
  AUC(0-t): 5199 ng·min/mL
  Cmax: 153.74 ng/mL
  Tmax: 15 min
[1]; 386.5 ug
  % F: 24%
  AUC(0-t): 6899 ng·min/mL
  Cmax: 179.02 ng/mL
  T1/2: 16 min
  Tmax: 15 min
[2]; 150 ug
  AUC0-inf, LS Mean: 0.15742 ng·h/mL
  AUC0-t, LS Mean: 0.14285 ng·h/mL
  Cmax, LS Mean: 0.31197 ng/mL
[2]; 200 ug
  AUC0-inf, LS Mean: 0.19016 ng·h/mL
  AUC0-t, LS Mean: 0.16679 ng·h/mL
  Cmax, LS Mean: 0.48945 ng/mL
[3]; AUC5-90, Mean
  AUC: 3.68 ng·h/mL
[3]; Cmax, Mean
  Cmax: 9.7 ng/mL
[3]; Concentration in Serum at 5 min, Mean
  level at 5 min: 8.8 ng/mL
[3]; Concentration in Serum at 15 min, Mean
  level at 0.25 h: 8.6 ng/mL
[3]; Concentration in Serum at 30 min, Mean
  level at 0.5 h: 6 ng/mL
[3]; Tmax, Mean
  Tmax: 9 min
[4]; 100 ug
  AUC(0-inf): 0.0885 ng·h/mL
  AUC(0-t): 0.112 ng·h/mL
  Cmax: 0.366 ng/mL
[4]; 150 ug
  AUC(0-inf): 0.119 ng·h/mL
  AUC(0-t): 0.107 ng·h/mL
  Cmax: 0.315 ng/mL
[4]; 200 ug
  AUC(0-inf): 0.11 ng·h/mL
  AUC(0-t): 0.0975 ng·h/mL
  Cmax: 0.337 ng/mL
